In patent publication US20220047596A1, “COMBINATION OF PARP INHIBITOR AND BRD4 INHIBITOR FOR THE TREATMENT OF CANCER” (Board of Regents, The University of Texas System, priority 2018, published 2022):

Legend:
Format in all cases: cell-based, Human
[1] = tested on: CtIP promoter and enhancer; experiment: ChIP-qPCR at CtIP promoter and enhancer; details: HOC1; 200 nM, 24 hr
Description: Chromatin Immunoprecipitation (ChIP-qPCR): ChIP assays were performed with EZ-Magna ChIP™ A/G Chromatin Immunoprecipitation Kit (Millipore Corp) as described in manufacturer's instructions. Briefly, cells were crosslinked with 1% formaldehyde. After cell lysis, isolated nuclei were subjected to sonication for chromatin fragmentation. Sheared chromatin was diluted in diluted buffer, and divided into aliquots for immunoprecipitation. Anti-BRD4 antibody (1:50, #13440S, Cell Signaling), anti-H3K27ac antibody (1:100, ab4729, Abcam), anti-H3K4M1 antibody (1:200, ab8895, Abcam), anti-Pol II antibody (1:100, sc-47701, Santa Cruz) or normal Rabbit IgG control (1:200, #2729, Cell Signaling) were added to chromatin samples, followed by overnight incubation at 4° C., with rotation. Antibody-chromatin complexes were captured using magnetic protein A/G beads. Purified DNAs were subjected to quantitative PCR (qPCR). All primers are list in Table 2.

HOC1 cells [2] = experiment: RPA and RAD51 foci immunofluorescence
Description: Immunofluorescence Staining and Microscopy: Briefly, cells were washed with PBS and fixed with 4% paraformaldehyde for 5 min, followed by permeabilization with 0.5% NP-40 and 1% Triton X-100 for 10 min Cells were then blocked with 5% FBS for 30 min and incubated with primary antibody (anti-RAD51, PC130, 1:100; anti-g-H2AX (Ser139), clone JBW301, 1:1000 from Millipore Corp; anti-RPA32, ab2175, 1:500 from Abcam) for 2 hr, followed by secondary antibody incubation for 1 hr at room temperature. Slides were sealed in mounting medium containing DAPI (Vector Laboratories, H1200) for further image acquisition. TE-2000 imaging acquisition system (Nikon) equipped with a 60× objective lens was used to capture images. Stained was quantified by ImageJ.

HOC1 cells [3] = experiment: Alkaline comet assay; details: 200 nM each, 48 hr
Description: Alkaline Single-Cell Agarose Gel Electrophoresis (Comet) Assays: Alkaline comet assays were performed with Comet Assay Kit (Trevigen) using manufacturer's instructions. Briefly, cell suspensions were embedded in LM (low melting) Agarose and deposited on comet slides. Slides were incubated for 1 hr at 4° C. in lysis solution, followed by immersing slides in freshly prepared alkaline unwinding solution (pH >13) for 20 min at room temperature in the dark. Electrophoresis was carried out for 30 min at 21 V in electrophoresis solution (pH >13). Slides were then stained with SYBR™ Gold (Thermo Fisher Scientific). Tail DNA content was analyzed with Comet score 1.5 software. DNA strand breakage was expressed as “comet tail moment”. The tail moment was measured for a minimum of 50 cells per sample, and average damage from 3 independent experiments was calculated.

## Cc1sc2c(c1C)C(c1ccc(Cl)cc1)=N[C@@H](CC(=O)OC(C)(C)C)c1nnc(C)n1-2 [JQ1]
[1]
  BRD4 association with the CtIP promoter and enhancer: decreased
  H3K27Ac, H3K4Me1 at the CtIP promoter and enhancer: reduced
  association of RNA Pol-II with the CtIP promoter and enhancer: decreased association
HOC1 cells [2]; after PARPi or IR, compared with vehicle
  RAD51 nuclear foci: decreased RAD51 nuclear foci
HOC1 cells [2]; in response to PARPi or IR
  RPA focus formation: severely impaired
HOC1 cells [3]
  DNA damage (comet assay): modestly induced DNA damage
